Reference: patent US8735424B2 (Novartis AG, priority 2008, dated 2014)

Assays:
PIM2 = PIM2 (Homo sapiens, UniProt Q9P1W9); test: Pim2 ATP depletion assay; type: biochemical; conditions: 4 μM ATP, 5 nM PIM2
Description: The activity of PIM2 is measured using a luciferase-luciferin based ATP detection reagent to quantify ATP depletion resulting from kinase-catalyzed phosphoryl transfer to a peptide substrate. Compounds to be tested are dissolved in 100% DMSO and directly distributed into white 384-well plates at 0.5 μl per well. To start the reaction, 10 μl of 10 nM Pim2 kinase and 20 μM BAD peptide (RSRHSSYPAGT-OH) in assay buffer (50 mM HEPES pH 7.5, 5 mM MgCl2, 1 mM DTT, 0.05% BSA) is added into each well. After 15 minutes, 10 μl of 8 μM ATP in assay buffer is added. Final assay concentrations are 5 nM PIM2, 4 μM ATP, 10 μM BAD peptide and 2.5% DMSO. The reaction is performed until approximately 50% of the ATP is depleted, then stopped with the addition of 20 μl KinaseGlo Plus (Promega Corporation) solution. The stopped reaction is incubated for 10 minutes and the remaining ATP detected via luminescence on the Victor2 (Perkin Elmer).

PIM1 = PIM1 (Homo sapiens, UniProt P11309); test: Pim1 ATP depletion assay; type: biochemical; conditions: 20 μM ATP, 2.5 nM PIM1
Sequence of PIM1 (P11309 whole entry): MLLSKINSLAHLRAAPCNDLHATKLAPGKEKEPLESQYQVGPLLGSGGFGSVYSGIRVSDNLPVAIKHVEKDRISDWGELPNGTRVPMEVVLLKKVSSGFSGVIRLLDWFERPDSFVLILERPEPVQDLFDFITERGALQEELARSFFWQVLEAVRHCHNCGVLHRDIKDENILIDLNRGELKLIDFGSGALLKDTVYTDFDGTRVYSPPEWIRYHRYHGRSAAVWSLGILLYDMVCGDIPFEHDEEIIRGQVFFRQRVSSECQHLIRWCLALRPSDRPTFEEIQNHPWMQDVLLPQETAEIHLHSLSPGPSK
Description: The activity of PIM1 is measured using a luciferase-luciferin based ATP detection reagent to quantify ATP depletion resulting from kinase-catalyzed phosphoryl transfer to a peptide substrate. Compounds to be tested are dissolved in 100% DMSO and directly distributed into white 384-well plates at 0.5 μl per well. To start the reaction, 10 μl of 5 nM Pim1 kinase and 80 μM BAD peptide (RSRHSSYPAGT-OH) in assay buffer (50 mM HEPES pH 7.5, 5 mM MgCl2, 1 mM DTT, 0.05% BSA) is added into each well. After 15 minutes, 10 μl of 40 μM ATP in assay buffer is added. Final assay concentrations are 2.5 nM PIM1, 20 μM ATP, 40 μM BAD peptide and 2.5% DMSO. The reaction is performed until approximately 50% of the ATP is depleted, then stopped with the addition of 20 μl KinaseGlo Plus (Promega Corporation) solution. The stopped reaction is incubated for 10 minutes and the remaining ATP detected via luminescence on the Victor2 (Perkin Elmer). […] IC50, the half maximal inhibitory concentration, represents the concentration of a test compound that is required for 50% inhibition of its target in vitro.

PIM3 = PIM3 (Homo sapiens, UniProt Q86V86); test: Pim3 ATP depletion assay; type: biochemical; conditions: 40 μM ATP
Description: The activity of PIM3 is measured using a luciferase-luciferin based ATP detection reagent to quantify ATP depletion resulting from kinase-catalyzed phosphoryl transfer to a peptide substrate. Compounds to be tested are dissolved in 100% DMSO and directly distributed into white 384-well plates at 0.5 μl per well. To start the reaction, 10 μl of 10 nM Pim3 kinase and 200 μM BAD peptide (RSRHSSYPAGT-OH) in assay buffer (50 mM HEPES pH 7.5, 5 mM MgCl2, 1 mM DTT, 0.05% BSA) is added into each well. After 15 minutes, 10 μl of 80 μM ATP in assay buffer is added. Final assay concentrations are 5 nM PIM1, 40 μM ATP, 100 μM BAD peptide and 2.5% DMSO. The reaction is performed until approximately 50% of the ATP is depleted, then stopped by the addition of 20 μl KinaseGlo Plus (Promega Corporation) solution. The stopped reaction is incubated for 10 minutes and the remaining ATP detected via luminescence on the Victor2 (Perkin Elmer).

KMS11 cells = test: Cell proliferation assay (CellTiter-Glo); type: cell-based; conditions: KMS-11, 72 h; KMS11 human myeloma cell line, 3 days
Description: KMS11 (human myeloma cell line), were cultured in IMDM supplemented with 10% FBS, sodium pyruvate and antibiotics. Cells were plated in the same medium at a density of 2000 cells per well into 96 well tissue culture plates, with outside wells vacant, on the day of assay. MM1.s (human myeloma cell line), were cultured in RPMI1640 supplemented with 10% FBS, sodium pyruvate and antibiotics. Cells were plated in the same medium at a density of 5000 cells per well into 96 well tissue culture plates, with outside wells vacant, on the day of assay.
Test compounds supplied in DMSO were diluted into DMSO at 500 times the desired final concentrations before dilution into culture media to 2 times final concentrations. Equal volumes of 2× compounds were added to the cells in 96 well plates and incubated at 37° C. for 3 days.
After 3 days plates were equilibrated to room temperature and equal volume of CellTiter-Glow Reagent (Promega) was added to the culture wells. The plates were agitated briefly and luminescent signal was measured with luminometer. The percent inhibition of the signal seen in cells treated with DMSO alone vs. cells treated with control compound was calculated and used to determine EC50 values (i.e., the concentration of a test compound that is required to obtain 50% of the maximum effect in the cells) for tested compounds, as shown in Example 41.

Sequence of PIM2 (Q9P1W9 whole entry): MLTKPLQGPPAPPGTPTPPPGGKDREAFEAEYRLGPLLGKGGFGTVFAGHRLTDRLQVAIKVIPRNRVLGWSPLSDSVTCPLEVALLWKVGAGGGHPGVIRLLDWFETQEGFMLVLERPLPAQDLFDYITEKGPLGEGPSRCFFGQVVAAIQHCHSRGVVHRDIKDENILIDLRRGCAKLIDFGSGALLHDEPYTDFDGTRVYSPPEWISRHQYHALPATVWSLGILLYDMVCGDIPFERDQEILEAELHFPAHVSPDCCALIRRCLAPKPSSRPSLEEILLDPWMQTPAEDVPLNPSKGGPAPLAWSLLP

Row | IC50 (PIM2) | IC50 (PIM1) | IC50 (PIM3) | SMILES | EC50 (KMS11 cells)
1 | 373 nM | 19 nM | 21 nM | N[C@@H]1CN(c2ccnc3ccc(-c4cccc(-c5c(F)cccc5F)n4)cc23)CC[C@H]1O [Example 35, (3R,4R)-3-amino-1-(6-(6-(2,6-difluorophenyl)pyridin-2-yl)quinolin-4-yl)piperidin-4-ol] | 
2 | 244 nM | 22 nM | 21 nM | N[C@@H]1CN(c2ccnc3ccc(-c4cccc(-c5nccs5)n4)cc23)CC[C@H]1F [Example 33, (3R,4R)-4-fluoro-1-(6-(6-(thiazol-2-yl)pyridin-2-yl)quinolin-4-yl)piperidin-3-amine] | 
3 | 12 nM | 5 nM | 6 nM | C[C@@H]1C[C@H](N)CN(c2ccnc3ccc(-c4cccc(-c5nccs5)n4)cc23)C1 [Example 31, (3S,5R)-5-methyl-1-(6-(6-(thiazol-2-yl)pyridin-2-yl)quinolin-4-yl)piperidin-3-amine] | 790 nM
4 | 60 nM | 6 nM | 7 nM | N[C@H]1CCCN(c2ccnc3cnc(-c4cccc(-c5nccs5)n4)cc23)C1 [Example 25, (S)-1-(6-(6-(thiazol-2-yl)pyridin-2-yl)-1,7-naphthyridin-4-yl)piperidin-3-amine] | 590 nM
5 | 132 nM | 6 nM | 8 nM | N[C@H]1CCCN(c2ccnc3ccc(-c4nccc(-c5c(F)cccc5F)n4)cc23)C1 [Example 29] | 
6 | 68 nM | 7 nM | 7 nM | N[C@H]1CCCN(c2ccnc3ccc(-c4nccc(-c5nccs5)n4)cc23)C1 [Example 28, (S)-1-(6-(4-(thiazol-2-yl)pyrimidin-2-yl)quinolin-4-yl)piperidin-3-amine] | 770 nM
7 | 33 nM | 2 nM | 7 nM | C[C@@H]1C[C@H](N)CN(c2ccnc3ccc(-c4cccc(-c5c(F)cccc5F)n4)cc23)C1 [Example 34, (3S,5R)-1-(6-(6-(2,6-difluorophenyl)pyridin-2-yl)quinolin-4-yl)-5-methylpiperidin-3-amine] | 
8 | 604 nM | 27 nM | 42 nM | N[C@@H]1CN(c2ccnc3ccc(-c4cccc(-c5c(F)cccc5F)n4)cc23)CC[C@H]1F [Example 32, (3R,4R)-1-(6-(6-(2,6-difluorophenyl)pyridin-2-yl)quinolin-4-yl)-4-fluoropiperidin-3-amine] | 
9 | 347 nM | 8 nM | 20 nM | N[C@H]1CCCN(c2ccnc3ccc(-c4nccc(-c5ccccc5F)n4)cc23)C1 [Example 30] | 
10 | 75 nM | 9 nM | 9 nM | N[C@@H]1CN(c2ccnc3ccc(-c4cccc(-c5nccs5)n4)cc23)CC[C@H]1O [Example 36, (3R,4R)-3-amino-1-(6-(6-(thiazol-2-yl)pyridin-2-yl)quinolin-4-yl)piperidin-4-ol] | 
11 | 331 nM | 16 nM | 26 nM | N[C@H]1CCCN(c2ccnc3ccc(-c4cccc(-c5c(F)cccc5F)n4)cc23)C1 [Example 26, (S)-1-(6-(6-(2,6-difluorophenyl)pyridin-2-yl)quinolin-4-yl)piperidin-3-amine] | 

The remaining lines, values behind:

Row | SMILES | IC50 (PIM2) | IC50 (PIM1) | IC50 (PIM3) | EC50 (KMS11 cells)
12 | Nc1ccc(-c2cccc(S(N)(=O)=O)c2)nc1-c1cc2c(N3CCC[C@H](N)C3)ccnc2cn1 [Example 21, (S)-3-(5-amino-6-(4-(3-aminopiperidin-1-yl)-1,7-naphthyridin-6-yl)pyridin-2-yl)benzenesulfonamide] | 160 nM | 2 nM | 8 nM | 
13 | CN(C)C(=O)c1ccc(F)c(-c2ccc(N)c(-c3cc4c(N5CCC[C@H](N)C5)ccnc4cn3)n2)c1 [Example 16, (S)-3-(5-amino-6-(4-(3-aminopiperidin-1-yl)-1,7-naphthyridin-6-yl)pyridin-2-yl)-4-fluoro-N,N-dimethylbenzamide] | 120 nM | 10 nM | 41 nM | 4000 nM
14 | Nc1ccc(-c2ccc(F)cc2)nc1-c1cc2c(N3CCC[C@H](N)C3)ccnc2cn1 [Example 19, (S)-2-(4-(3-aminopiperidin-1-yl)-1,7-naphthyridin-6-yl)-6-(4-fluorophenyl)pyridin-3-amine] | 102 nM | 6 nM | 7 nM | 4000 nM
15 | CS(=O)(=O)c1ccc(-c2ccc(N)c(-c3cc4c(N5CCC[C@H](N)C5)ccnc4cn3)n2)cc1 [Example 24, (S)-2-(4-(3-aminopiperidin-1-yl)-1,7-naphthyridin-6-yl)-6-(4-(methylsulfonyl)phenyl)pyridin-3-amine] | 34 nM | 2 nM | 7 nM | 1200 nM
16 | Nc1ccc(-c2ccc(F)cc2F)nc1-c1cc2c(N3CCC[C@H](N)C3)ccnc2cn1 [Example 17, (S)-2-(4-(3-aminopiperidin-1-yl)-1,7-naphthyridin-6-yl)-6-(2,4-difluorophenyl)pyridin-3-amine] | 151 nM | 4 nM | 13 nM | 
17 | Cc1cc(-c2ccnc3cnc(-c4nc(-c5cc(C(=O)NC(C)C)ccc5F)ccc4N)cc23)cc(N)n1 [Example 4, 3-(5-amino-6-(4-(2-amino-6-methylpyridin-4-yl)-1,7-naphthyridin-6-yl)pyridin-2-yl)-4-fluoro-N-isopropylbenzamide] | 350 nM | 24 nM | 40 nM | 
18 | COc1cccc(-c2ccc(N)c(-c3cc4c(N5CCC[C@H](N)C5)ccnc4cn3)n2)n1 [Example 14, (S)-6-(4-(3-aminopiperidin-1-yl)-1,7-naphthyridin-6-yl)-6′-methoxy-2,2′-bipyridin-5-amine] | 132 nM | 6 nM | 8 nM | 
19 | Cc1cc(-c2ccnc3cnc(-c4nc(-c5c(F)cccc5F)ccc4N)cc23)cc(N)n1 [Example 3, 4-(6-(3-amino-6-(2,6-difluorophenyl)pyridin-2-yl)-1,7-naphthyridin-4-yl)-6-methylpyridin-2-amine] | 809 nM | 15 nM | 25 nM | 
20 | CS(=O)(=O)c1cccc(-c2ccc(N)c(-c3cc4c(N5CCC[C@H](N)C5)ccnc4cn3)n2)c1 [Example 22, (S)-2-(4-(3-aminopiperidin-1-yl)-1,7-naphthyridin-6-yl)-6-(3-(methylsulfonyl)phenyl)pyridin-3-amine] | 280 nM | 4 nM | 10 nM | 
21 | CC(C)NC(=O)c1ccc(F)c(-c2ccc(N)c(-c3cc4c(N5CCC[C@H](N)C5)c(F)cnc4cn3)n2)c1 [Example 2, (S)-3-(5-amino-6-(4-(3-aminopiperidin-1-yl)-3-fluoro-1,7-naphthyridin-6-yl)pyridin-2-yl)-4-fluoro-N-isopropylbenzamide] | 258 nM | 18 nM | 37 nM | 
